What all share (format): in vivo, rat
One data set relates to eNOS. Description: eNOS induction in the heart after oral administration (Western blotting). Conditions: oral 200 mg/kg, 24 hours after administration, FIG. 4(A). From the text: Monoclonal IgG antibody cross-reactive to HSP70, HSP60 and HSP27 antibodies was purchased from Stressgen Biotechnologies Corporation ([…], Canada). Primary antibodies of nitric oxide synthase (NOS) or in other words inducible NOS (iNOS), endothelial NOS (eNOS) and neuronal NOS (nNOS) were purchased from Transduction Laboratories (Lexington, Ky.). The primary antibody of thioredoxin was kindly provided by Professor Yodoi of Kyoto University.
(§1) An emulsion of 100% by weight of geranylgeranylacetone (GGA) with 5% by weight of gum arabic and 0.008% by weight of tocopherol was given orally to the rats described above. The oral dosages were 50 mg/kg, 100 mg/kg, 200 mg/kg and 400 mg/kg (GGA groups). […] The vehicle was administered orally to the Control Group.
Next, the hearts were removed from the killed rats and frozen in liquid nitrogen. […]
The total protein concentration of the myocardium was quantified by the Bradford method (Bradford M M. A rapid and sensitive method for quantitation of microgram quantities of protein utilizing the principle of protein-dye binding. Anal Biochem 1976; 72:248-254). […] The proteins were detected by exposing the ECL cells with Hyperfilm (Amersham Pharmacia, Buckinghamshire, UK). Based on this, the amount of proteins on the immunoblots was quantified using National Institutes of Health (NIH) imaging software. […]
(In general: Immunoblotting shows a protein as a band on a membrane.)

A short description of data set [1]: Observation of abnormalities (side-effects) during oral administration. As to conditions: rats, oral 50, 100, 200 and 400 mg/kg. On the procedure:
as §1

Data set [2] relates to heat shock factor 1 (HSF1). Description: HSF1 phosphorylation and translocation in cytosolic and nuclear heart fractions (Western immunoblotting). Conditions: 24 h after GGA 200 mg/kg oral or vehicle; chelerythrine 5 mg/kg i.v. pretreatment, FIG. 9. On the procedure: Male Sprague-Dawley rats (220-250 g) were used. GGA, as an emulsion with 5% gum arabic and 0.008% tocopherol, was given orally at a dose of 200 mg/kg. Rats were classified into 4 groups. FIG. 7 is a diagrammatic representation of experimental protocol. […] Twenty-four hours after oral administration of GGA or vehicle, rats were anesthetized (sodium pentobarbital, 50 mg/kg IP) and heparinized (500 IU/kg IP). Hearts were excised, immediately frozen in liquid nitrogen, and stored at −70° C. until use for Western blot analysis (n=4 for each group). […]
To analyze the expression of HSP70, the frozen heart samples were homogenized with SDS sample buffer (pH 6.8, 20% glycerol, 6% SDS, 0.12M Tris), centrifuged and boiled (Maloyan A, Palmon A, Horowitz M. Heat acclimation increases the basal HSP70 level and alters its production dynamics during heat stress. Am J Physiol. 1999; 276:R1506-R1515.). […] The total protein concentration of heart was quantified by the Bradford method (Bradford MM. A rapid and sensitive method for quantitation of microgram quantities of protein utilizing the principle of protein-dye binding. Anal. Biochem. 1976;72:248-254). […] The proteins were detected by ECL with exposure to Hyperfilm (Amersham Pharmacia). The amount of protein on the immunoblots was quantified using National Institutes of Health image software. […]

Regarding `CC(=O)CCC=C(C)CCC=C(C)CCC=C(C)CCC=C(C)C` [GGA, 6, 10, 14, 18-tetramethyl-5,9, 13, 17-nonadecatetraen-2-one], the “eNOS induction in the heart” value with eNOS is given as “neither iNOS nor eNOS was induced”. In data set [1], the “abnormalities (side-effects) during administration” value is “No particular abnormalities (side-effects) were observed”. Further, in data set [2], the “amount of phosphorylated form of HSF1 in the nuclear fraction” value is reported as “increased”.
